1 compound from ChEMBL document CHEMBL1148156, “Chemical constituents of Millettia taiwaniana: structure elucidation of five new isoflavonoids and their cancer chemopreventive activity” (2004) can be followed below.

Structures are written as SMILES. A value given as a limit tells only on which side of the number the result lay.

Holding throughout (type): functional
Experiment [1] concerns Mus musculus. In words: Inhibition of DMBA-induced/TPA-promoted carcinogenesis in ICR mouse assessed as mouse bearing papillomas at 85 nmol administered 1 hr before TPA treatment measured after 20 weeks. More on the design: scale not given: the % may be the effect or the level left.
The subject of experiment [2] is Mus musculus. In words: Inhibition of DMBA-induced/TPA-promoted carcinogenesis in ICR mouse assessed as mouse bearing papillomas at 85 nmol administered 1 hr before TPA treatment measured after 8 weeks. More on the design: scale not given: the % may be the effect or the level left.
The test system of experiment [3] is Mus musculus. In words: Inhibition of DMBA-induced/TPA-promoted carcinogenesis in ICR mouse assessed as number of skin papillomas per mouse at 85 nmol administered 1 hr before TPA treatment measured after 14 weeks.
The test system of experiment [4] is Mus musculus. In words: Inhibition of DMBA-induced/TPA-promoted carcinogenesis in ICR mouse assessed as mouse bearing papillomas at 85 nmol administered 1 hr before TPA treatment measured after 10 weeks. More on the design: scale not given: the % may be the effect or the level left.
Experiment [5] relates to Mus musculus. In words: Inhibition of DMBA-induced/TPA-promoted carcinogenesis in ICR mouse assessed as number of skin papillomas per mouse at 85 nmol administered 1 hr before TPA treatment measured after 20 weeks.

For the compound `CC(C)=CCc1c2c(c(O)c3c(=O)c(-c4ccc(O)c(O)c4)coc13)C=CC(C)(C)O2` [AURICULASIN], the Activity in the experiment with Mus musculus [1] was 87%; with Mus musculus [2], 13%; in the experiment on Mus musculus [3], below 3; in the experiment on Mus musculus [4] it was 27%; in the experiment on Mus musculus [5] it was 4.9.
